Experimental data: patent US10987360B2, “Hepatitis B core protein modulators” (Assembly Biosciences, Inc., priority 2016, dated 2021)
Where two headings read alike, the source gives them in different places.

Assays:
[1] = test system: HBV viral load in AD38 cells; test: Viral load production in AD38 cells, quantitative PCR of the core sequence in supernatant; type: cell-based; settings: Hepatitis B virus, 144 h, 6 days incubation
Protocol: (§1) Assay Measuring Activity of Compounds on Viral Production in and on Viability of AD38 Cells
(§2) AD38 cells grown in a 175 cm flask with “Growth Medium” (DMEM/F12 (1:1) (cat #SH30023.01, Hyclone, 1×Pen/step (cat #: 30-002-CL, Mediatech, Inc), 10% FBS (cat #: 101, Tissue Culture Biologics), 250 μg/mL G418 (cat #: 30-234-CR, Mediatech, Inc), 1 μg/mL Tetracycline (cat #: T3325, Teknova)) were detached with 0.25% trypsin. Tetracycline-free “treatment medium” (15 mL DMEM/F12 (1:1) (cat #SH30023.01, Hyclone, 1×Pen/step (cat #: 30-002-CL, Mediatech, Inc), with 2% FBS, Tet-system approved (cat #: 631106, Clontech) were then added to mix and spun at 1300 rpm for 5 min. Pelleted cells were then re-suspended/washed with 50 mL of 1×PBS 2 times and 10 mL Treatment Medium one time. AD38 cells were then re-suspended with 10 mL of Treatment Medium and counted. Wells of a collagen coated 96-well NUNC microtiter plate were seeded at 50,000/well in 180 μL of Treatment Medium, and 20 μL of in treatment media with either 10% DMSO (Control) or a 10× solution of compound in 10% DMSO was added. Plates were incubated for 6 days at 37° C.
Viral load production was assayed by quantitative PCR of the core sequence. Briefly, 5 μL of clarified supernatant was added to a PCR reaction mixture that contained forward primers HBV-f 5′-CTGTGCCTTGGGTGGCTTT-3′, Reverse primers HBV-r 5′-[…]-3′ and Fluorescent TaqMan™ Probes HBV-probe 5′-FAM/AGCTCCAAA/ZEN/[…]/3IABkFQ-3′ in Quanta Biosciences PerfeCTa® qPCR Toughmix®, and was subsequently on an Applied Biosystems VIIA7 in a final volume of 20 μL. The PCR mixture was incubated at 45° C. for 5 minutes, then 95° C. for 10 min, followed by 40 cycles of 10 seconds at 95° C. and 20 seconds at 60° C. Viral load was quantitated against known standards by using ViiA™ 7 Software. Viral load in the supernatant from wells with treated cells were compared against viral load in supernatant from DMSO control wells (≥3 per plate).

AD38 cells = test: Viability of AD38 cells, Promega CellTiter-Glo; type: cell-based; settings: 6 days incubation, controls being 100%; for AD38 Viability Normalized Result (CPAM/DMSO %) at 10 μM: Table 6, compounds of Group 4
Protocol: as §1, §2
At the end of compound treatment period cell viability was assessed using a Promega CellTiter-Glo protocol. All supernatant was removed the previously treated 96-well microtiter plate, and 50 μL Tetracycline-free treatment medium (DMEM/F12 (1:1), 1×Pen/step (cat #: 30-002-CL, Mediatech, Inc), with 2% FBS, Tet-system approved (cat #: 631106, Clontech), and 1% DMSO was added back to each well. Another 50 μL of CellTiter-Glo reagent solution (Promega, G7573) was then added at room temperature and the contents mixed for 2 minutes on an orbital shaker to induce cell lysis. This was followed by incubation at room temperature for 10 minutes to stabilize the luminescent signal. The luminescence was recorded for 0.2 seconds per well on a Tecan multimode platereader (Infinite M1000 pro). The luminescent signal from each well was normalized against that of untreated (DMSO) control wells. All results in Tables 3-6 were reported with percent viability (with controls being 100%).

[2] = Table 4, compounds of Group 2, read-out: AD38 Viral Load (%) (VL with cmpd/VL in DMSO control) at 10 μM
[3] = Table 3, compounds of Group 1, read-out: AD38 Viral Load (%) (VL with cmpd/VL in DMSO control) at 10 μM
[4] = Table 5, compounds of Group 3, read-out: AD38 Viral Load (%) (VL with cmpd/VL in DMSO control) at 10 μM
[5] = Table 6, compounds of Group 4, read-out: AD38 Viral Load (CpAM/DMSO %) at 10 μM

SMILES	activity at 10 µM [1, 2] [%]	AD38 Viability Normalized Result (cmpd/DMSO %) at 10 μM (AD38 cells; Table 4, compounds of Group 2) [%]	activity at 10 µM [1, 3] [%]	AD38 Viability Normalized Result (cmpd/DMSO %) at 10 μM (AD38 cells; Table 3, compounds of Group 1) [%]	further results
N#Cc1ccc(-c2ncc(CNC(=O)c3ccc4c(c3)NC(=O)[C@H]3CCCCN3S4(=O)=O)s2)c(F)c1 (single isomer, unassigned) [C25-02-Isomer II]	0.6	111			
N#Cc1ccc(-c2ncc(CNC(=O)c3ccc4c(c3)NC(=O)[C@@H]3CCCCN3S4(=O)=O)s2)c(F)c1 (single isomer, unassigned) [C25-02-Isomer I]	3	108			
O=C(NCc1cnc(-n2cccn2)s1)c1ccc2c(c1)NC(=O)[C@H]1CCCCN1S2(=O)=O (single isomer, unassigned) [C25-04-Isomer II]	1.7	99			
O=C(NCc1cnc(-n2cccn2)s1)c1ccc2c(c1)NC(=O)[C@@H]1CCCCN1S2(=O)=O (single isomer, unassigned) [C25-04-Isomer I]	8.3	104			
Cc1ncc(CNC(=O)c2ccc3c(c2)NC(=O)c2ccncc2S3)s1 [Compound 576]	11.7	98			
O=C(NCc1cnc(-c2ccccc2)s1)c1ccc2c(c1)NC(=O)c1ccncc1S2 [Compound 578]	3	100			
O=C(NCc1cnc(-c2ccc(O)cc2)s1)c1ccc2c(c1)NC(=O)c1ccncc1S2 [Compound 762]	45.6	102			
O=C1CCC(c2ncc(CNC(=O)c3ccc4c(c3)NC(=O)c3ccccc3S4(=O)=O)s2)CC1 [Compound 818, 11-oxo-N-((2-(4-oxocyclohexyl)thiazol-5-yl)methyl)-10,11-dihydrodibenzo[b,f][1,4]thiazepine-8-carboxamide 5,5-dioxide]			1.3	84	
Cl.NC1CCC(Cc2ncc(CNC(=O)c3ccc4c(c3)NC(=O)c3ccccc3S4(=O)=O)s2)CC1 (stereo not shown) [Compound 884, N-((2-((4-aminocyclohexyl)methyl)thiazol-5-yl)methyl)-11-oxo-10,11-dihydrodibenzo[b,f][1,4]thiazepine-8-carboxamide 5,5-dioxide hydrochloride]			15.1	94	
O=C(NCc1cnc(C2CCC(O)CC2)s1)c1ccc2c(c1)NC(=O)c1ccccc1S2(=O)=O (stereo not shown) [Compound 924, N-((2-(4-hydroxycyclohexyl)thiazol-5-yl)methyl)-11-oxo-10,11-dihydrodibenzo[b,f][1,4]thiazepine-8-carboxamide 5,5-dioxide]			0.7	95	
CC(C)(C)OC(=O)N1CCC(c2ncc(CNC(=O)c3ccc4c(c3)NC(=O)c3ccccc3S4(=O)=O)s2)CC1 [Compound 926-A]			3.6	98	
O=C(NCc1cnc(CN2CCOCC2)s1)c1ccc2c(c1)NC(=O)c1ccccc1S2(=O)=O [Compound 927]			4.7	92	
CC1(C)CCC(c2ncc(CNC(=O)c3ccc4c(c3)NC(=O)c3ccccc3S4(=O)=O)s2)C1 (stereo not shown) [Compound 979]			0.5	59	
O=C1CCC(c2ncc(CNC(=O)c3ccc4c(c3)NC(=O)c3ccccc3S4(=O)=O)s2)C1 (stereo not shown) [Compound 980-A, 11-oxo-N-((2-(3-oxocyclopentyl)thiazol-5-yl)methyl)-10,11-dihydrodibenzo[b,f][1,4]thiazepine-8-carboxamide 5,5-dioxide]			1.2	97	
COC1(OC)CCC(c2ncc(CNC(=O)c3ccc4c(c3)NC(=O)c3ccccc3S4(=O)=O)s2)C1 (stereo not shown) [Compound 980-B, N-((2-(3,3-dimethoxycyclopentyl)thiazol-5-yl)methyl)-11-oxo-10,11-dihydrodibenzo[b,f][1,4]thiazepine-8-carboxamide 5,5-dioxide]			0.9	93	
O=C(NCc1cnc(C(F)(F)F)s1)c1ccc2c(c1)NC(=O)c1ccncc1S2(=O)=O [Compound 1020]	6.1	97			
N#Cc1ccc(-c2ncc(CNC(=O)c3ccc4c(c3)NC(=O)c3ccncc3S4(=O)=O)s2)c(F)c1 [Compound 1021]	0.3	96			
C[C@H](N)C(=O)N1CCC(c2ncc(CNC(=O)c3ccc4c(c3)NC(=O)c3ccccc3S4(=O)=O)s2)CC1.Cl [Compound 1034, N-((2-(1-(L-alanyl)piperidin-4-yl)thiazol-5-yl)methyl)-11-oxo-10,11-dihydrodibenzo[b,f][1,4]thiazepine-8-carboxamide 5,5-dioxide hydrochloride]			67.7	106	
Cc1c(C(=O)NCc2cnn(-c3nccs3)c2)ccc2c1NC(=O)c1ccccc1S2(=O)=O [Compound 1153, 9-methyl-11-oxo-N-((1-(thiazol-2-yl)-1H-pyrazol-4-yl)methyl)-10,11-dihydrodibenzo[b,f][1,4]thiazepine-8-carboxamide 5,5-dioxide]					activity at 10 µM [1, 4]: 2.1%; AD38 Viability Normalized Result (cmpd/DMSO %) at 10 μM (AD38 cells; Table 5, compounds of Group 3): 92%
O=C(NCc1cnn(-c2nccs2)c1)c1ccc2c(c1)NC(=O)c1ccccc1S2(=O)=O [Compound 1155, 11-oxo-N-((1-(thiazol-2-yl)-1H-pyrazol-4-yl)methyl)-10,11-dihydrodibenzo[b, f][1,4]thiazepine-8-carboxamide 5,5-dioxide]					activity at 10 µM [1, 4]: 0.6%; AD38 Viability Normalized Result (cmpd/DMSO %) at 10 μM (AD38 cells; Table 5, compounds of Group 3): 104%
CC1=C(C)C(=O)Nc2cc(C(=O)NCc3cnc(C(F)(F)F)s3)ccc2O1 [Compound C1-01]	27.9	106			
CC1=C(C)C(=O)Nc2cc(C(=O)NCc3cnc(-c4ccc(C#N)cc4F)s3)ccc2O1 [Compound C1-02]	20.4	103			
Cc1cc(=O)[nH]c2cc(C(=O)NCc3cnc(C(F)(F)F)s3)ccc12 [Compound C2-01, 4-Methyl-2-oxo-N-((2-(trifluoromethyl)thiazol-5-yl)methyl)-1,2-dihydroquinoline-7-carboxamide]					activity at 10 µM [1, 5]: 69.7%; AD38 Viability Normalized Result (CPAM/DMSO %) at 10 μM (AD38 cells): 113%
CC(C)c1cc(=O)[nH]c2cc(C(=O)NCc3cnc(C(F)(F)F)s3)ccc12 [Compound C3-01, 4-Isopropyl-2-oxo-N-((2-(trifluoromethyl)thiazol-5-yl)methyl)-1,2-dihydroquinoline-7-carboxamide]					activity at 10 µM [1, 5]: 44.6%; AD38 Viability Normalized Result (CPAM/DMSO %) at 10 μM (AD38 cells): 105%
N#Cc1ccc(-c2ncc(CNC(=O)c3ccc4c(c3)NC(=O)C43CCCCC3)s2)c(F)c1 [Compound C6-02, N-((2-(4-Cyano-2-fluorophenyl)thiazol-5-yl)methyl)-2′-oxospiro[cyclohexane-1,3′-indoline]-6′-carboxamide]					activity at 10 µM [1, 5]: 41.2%; AD38 Viability Normalized Result (CPAM/DMSO %) at 10 μM (AD38 cells): 91%
CC1=C(C)S(=O)(=O)c2ccc(C(=O)NCc3cnc(C(F)(F)F)s3)cc2NC1=O [Compound C10-01]	12.2	101			
